In brackets after ≈: the same amount, converted by molar mass.
How the values were obtained:
E. coli R3 (ATCC 11775) = assay: MIC and MBC, microtiter plate technique; type: cell-based; conditions: Escherichia coli; for MIC: ATCC11775, 24 h, resazurin; for MBC: ATCC11775, TTC
E. cloacae (ATCC 49141) = assay: MIC and MBC, microtiter plate technique; type: cell-based; conditions: ATCC49141, Enterobacter cloacae; for MIC: 24 h, resazurin; for MBC: TTC
S. aureus (ATCC 23235) = assay: microbe, parasite or virus in culture; type: cell-based; conditions: Staphylococcus aureus; for MBC: ATCC23235; for MIC: ATCC23235, 24 h
[1] = test system: P. aeruginosa (ATCC 15442); assay: MIC and MBC, microtiter plate technique; type: cell-based; conditions: ATCC15442, Pseudomonas aeruginosa; for MIC: 24 h, resazurin; for MBC: TTC
E. coli R4 (ATCC 39543) = assay: MIC and MBC, microtiter plate technique; type: cell-based; conditions: Escherichia coli; for MBC: ATCC39543; for MIC: ATCC39543, 24 h
E. coli K12 (ATCC 25404) = assay: MIC and MBC, microtiter plate technique; type: cell-based; conditions: Escherichia coli; for MBC: ATCC25404; for MIC: ATCC25404, 24 h
E. coli R2 (ATCC 39544) = assay: MIC and MBC, microtiter plate technique; type: cell-based; conditions: Escherichia coli; for MBC: ATCC39544; for MIC: ATCC39544, 24 h
[2] = target: T1, mushroom tyrosinase (mTYR) (Agaricus bisporus, UniProt C7FF04); assay: Tyrosinase assay with L-DOPA as substrate (absorbance at 475 nm); type: biochemical; conditions: 100 µM compound
T1 construct: purchased Sigma-Aldrich (Poznan, Poland); host or cells: Agaricus bisporus (extracted natural enzyme)
Excerpt: Tyrosinase (Tyr) extracted from Agaricus bisporus (mushroom tyrosinase, mTYR) is commonly used as a model enzyme for human Tyr due to its high purity, stability, and commercial availability. It is frequently used in the selection of TYR inhibitors. Following established literature protocols, L-tyrosine and L-DOPA, which serve as substrates for monophenol and diphenol oxidation, respectively, were used to assess the tyrosinase inhibitory activity of synthesized target compounds [21].
Tyrosinase (Tyr) activity was measured using L-DOPA as substrate and phosphate buffer solution (PBS) as blank control, following the method described by Min He et al. (2022) with an ultraviolet spectrophotometer (Carry-300, Agilent Life Sciences and Chemical Analysis, Santa Clara, CA, USA). […] Before the experiment, 2.9 mL of PBS and 0.1 mL of DMSO were used to account for the influence of the background solvent. The inhibitor solution (100 µL), substrate solution (2.8 mL), and Tyr solution (100 µL) were then added to a quartz colorimetric cuvette. After a one-minute mixing period, the absorption spectra of the mixture were continuously recorded at 475 nm using the UV spectrophotometer (Carry-300) for 5 min over a period of every 30 s. The tyrosinase inhibition rate was calculated as follows:Relative enzyme activity (%) = (A1 − A2)/A1 × 100
A1 = Absorbance of L-DOPA and inhibitor.
A2 = Absorbance of L-DOPA, inhibitor, and tyrosinase.

[3] = test system: A. baumannii (ATCC 17978); assay: MIC and MBC, microtiter plate technique; type: cell-based; conditions: ATCC17978, Acinetobacter baumannii; for MIC: 24 h, resazurin; for MBC: TTC

T1 sequence (C7FF04 1-392 limits assumed): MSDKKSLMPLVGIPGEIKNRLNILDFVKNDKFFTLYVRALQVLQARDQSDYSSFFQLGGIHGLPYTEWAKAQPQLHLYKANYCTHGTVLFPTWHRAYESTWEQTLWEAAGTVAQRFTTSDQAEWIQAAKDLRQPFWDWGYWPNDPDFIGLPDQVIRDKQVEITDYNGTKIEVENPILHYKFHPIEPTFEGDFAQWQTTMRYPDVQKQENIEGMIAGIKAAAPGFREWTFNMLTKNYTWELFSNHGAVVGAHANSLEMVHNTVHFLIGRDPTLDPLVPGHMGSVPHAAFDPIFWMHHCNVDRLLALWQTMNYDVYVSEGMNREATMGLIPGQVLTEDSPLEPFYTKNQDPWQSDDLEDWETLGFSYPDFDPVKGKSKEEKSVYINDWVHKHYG

Row | SMILES | MIC (E. coli R3 (ATCC 11775)) [µM] | MBC (E. coli R3 (ATCC 11775)) [µM] | MIC (E. cloacae (ATCC 49141)) [µM] | MBC (E. cloacae (ATCC 49141)) [µM] | MBC (S. aureus (ATCC 23235)) [µM] | MIC (S. aureus (ATCC 23235)) [µM] | MIC [1] [µM] | MBC [1] [µM] | MBC (E. coli R4 (ATCC 39543)) [µM] | MIC (E. coli R4 (ATCC 39543)) [µM] | MBC (E. coli K12 (ATCC 25404)) [µM] | MIC (E. coli K12 (ATCC 25404)) [µM] | MBC (E. coli R2 (ATCC 39544)) [µM] | MIC (E. coli R2 (ATCC 39544)) [µM] | inhibition at 100 µM [2] [%] | MIC [3] [µM] | MBC [3] [µM]
1 | CCCCN(C(=O)Cc1ccccc1)C(C(=O)NCc1ccc(F)cc1)c1ccc(O)c(O)c1 (stereo not drawn) [Compound 5i] | 1.92 (≈ 0.892 µg/mL) | 2.13 (≈ 0.989 µg/mL) | 1.21 (≈ 0.562 µg/mL) | 1.27 (≈ 0.59 µg/mL) | 1.05 (≈ 0.488 µg/mL) | 0.99 (≈ 0.46 µg/mL) | 1.23 (≈ 0.571 µg/mL) | 1.26 (≈ 0.585 µg/mL) | 2.51 (≈ 1.17 µg/mL) | 2.31 (≈ 1.07 µg/mL) | 1.05 (≈ 0.488 µg/mL) | 0.6 (≈ 0.279 µg/mL) | 1.16 (≈ 0.539 µg/mL) | 1.17 (≈ 0.544 µg/mL) | > 10 | 0.99 (≈ 0.46 µg/mL) | 1.05 (≈ 0.488 µg/mL)
2 | COc1ccc(CN(C(C)=O)C(C(=O)NCc2ccccc2)c2ccc(O)c(O)c2)cc1 (stereo not drawn) [Compound 5j, N-benzyl-2-(3,4-dihydroxyphenyl)-2-(N-(4-methoxybenzyl)acetamido)acetamide] | 1.08 (≈ 0.469 µg/mL) | 1.28 (≈ 0.556 µg/mL) | 0.76 (≈ 0.33 µg/mL) | 0.81 (≈ 0.352 µg/mL) | 0.74 (≈ 0.322 µg/mL) | 0.78 (≈ 0.339 µg/mL) | 0.77 (≈ 0.335 µg/mL) | 0.82 (≈ 0.356 µg/mL) | 1.47 (≈ 0.639 µg/mL) | 1.22 (≈ 0.53 µg/mL) | 0.82 (≈ 0.356 µg/mL) | 0.26 (≈ 0.113 µg/mL) | 1.19 (≈ 0.517 µg/mL) | 0.74 (≈ 0.322 µg/mL) |  | 0.8 (≈ 0.348 µg/mL) | 0.85 (≈ 0.369 µg/mL)
3 | COc1ccc(CNC(=O)C(c2ccc(O)c(O)c2)N(Cc2ccc(OC)cc2)C(C)=O)cc1 (stereo not drawn) [Compound 5k, 2-(3,4-dihydroxyphenyl)-N-(4-methoxybenzyl)-2-(N-(4-methoxybenzyl)acetamido)-acetamide] | 2.13 (≈ 0.989 µg/mL) | 2.58 (≈ 1.2 µg/mL) | 1.14 (≈ 0.53 µg/mL) | 1.26 (≈ 0.585 µg/mL) | 1.18 (≈ 0.548 µg/mL) | 1.18 (≈ 0.548 µg/mL) | 1.15 (≈ 0.534 µg/mL) | 1.21 (≈ 0.562 µg/mL) | 2.82 (≈ 1.31 µg/mL) | 2.55 (≈ 1.18 µg/mL) | 0.79 (≈ 0.367 µg/mL) | 0.58 (≈ 0.269 µg/mL) | 1.27 (≈ 0.59 µg/mL) | 1.27 (≈ 0.59 µg/mL) |  | 0.93 (≈ 0.432 µg/mL) | 1 (≈ 0.465 µg/mL)
4 | COc1ccc(CN(C(C)=O)C(C(=O)NCc2ccc(F)cc2)c2ccc(O)c(O)c2)cc1 (stereo not drawn) [Compound 5l, 2-(3,4-dihydroxyphenyl)-N-(4-fluorobenzyl)-2-(N-(4-methoxybenzyl)acetamido)-acetamide] | 1.64 (≈ 0.742 µg/mL) | 2.62 (≈ 1.19 µg/mL) | 1.23 (≈ 0.557 µg/mL) | 1.27 (≈ 0.575 µg/mL) | 1.28 (≈ 0.579 µg/mL) | 1.27 (≈ 0.575 µg/mL) | 1.23 (≈ 0.557 µg/mL) | 1.26 (≈ 0.57 µg/mL) | 2.76 (≈ 1.25 µg/mL) | 2.61 (≈ 1.18 µg/mL) | 0.77 (≈ 0.348 µg/mL) | 0.64 (≈ 0.29 µg/mL) | 1.21 (≈ 0.548 µg/mL) | 1.17 (≈ 0.529 µg/mL) |  | 1 (≈ 0.452 µg/mL) | 1.03 (≈ 0.466 µg/mL)
5 | CC(=O)N(C1CCCCC1)C(C(=O)NCc1ccccc1)c1ccc(O)c(O)c1 (stereo not drawn) [Compound 5m, N-benzyl-2-(N-cyclohexylacetamido)-2-(3,4-dihydroxyphenyl)acetamide] | 1.24 (≈ 0.492 µg/mL) | 1.38 (≈ 0.547 µg/mL) | 0.81 (≈ 0.321 µg/mL) | 0.89 (≈ 0.353 µg/mL) | 0.78 (≈ 0.309 µg/mL) | 0.75 (≈ 0.297 µg/mL) | 0.8 (≈ 0.317 µg/mL) | 0.91 (≈ 0.361 µg/mL) | 1.53 (≈ 0.607 µg/mL) | 0.59 (≈ 0.234 µg/mL) | 0.85 (≈ 0.337 µg/mL) | 0.35 (≈ 0.139 µg/mL) | 1.31 (≈ 0.519 µg/mL) | 0.94 (≈ 0.373 µg/mL) |  | 0.79 (≈ 0.313 µg/mL) | 0.88 (≈ 0.349 µg/mL)
6 | COc1ccc(CNC(=O)C(c2ccc(O)c(O)c2)N(C(C)=O)C2CCCCC2)cc1 (stereo not drawn) [Compound 5n, 2-(N-cyclohexylacetamido)-2-(3,4-dihydroxyphenyl)-N-(4-methoxybenzyl)acetamide] | 1.1 (≈ 0.469 µg/mL) | 1.3 (≈ 0.554 µg/mL) | 0.8 (≈ 0.341 µg/mL) | 0.8 (≈ 0.341 µg/mL) | 0.83 (≈ 0.354 µg/mL) | 0.72 (≈ 0.307 µg/mL) | 0.78 (≈ 0.333 µg/mL) | 0.82 (≈ 0.35 µg/mL) | 1.44 (≈ 0.614 µg/mL) | 1.48 (≈ 0.631 µg/mL) | 0.77 (≈ 0.328 µg/mL) | 0.39 (≈ 0.166 µg/mL) | 1.3 (≈ 0.554 µg/mL) | 0.76 (≈ 0.324 µg/mL) |  | 0.75 (≈ 0.32 µg/mL) | 0.79 (≈ 0.337 µg/mL)
7 | CC(=O)N(C1CCCCC1)C(C(=O)NCc1ccc(F)cc1)c1ccc(O)c(O)c1 (stereo not drawn) [Compound 5o, 2-(N-cyclohexylacetamido)-2-(3,4-dihydroxyphenyl)-N-(4-fluorobenzyl)acetamide] | 1.01 (≈ 0.419 µg/mL) | 1.45 (≈ 0.601 µg/mL) | 0.8 (≈ 0.332 µg/mL) | 0.84 (≈ 0.348 µg/mL) | 0.81 (≈ 0.336 µg/mL) | 0.74 (≈ 0.307 µg/mL) | 0.73 (≈ 0.303 µg/mL) | 0.86 (≈ 0.356 µg/mL) | 1.47 (≈ 0.609 µg/mL) | 1.52 (≈ 0.63 µg/mL) | 0.86 (≈ 0.356 µg/mL) | 0.3 (≈ 0.124 µg/mL) | 1.23 (≈ 0.51 µg/mL) | 0.79 (≈ 0.327 µg/mL) | > 10 | 0.75 (≈ 0.311 µg/mL) | 0.81 (≈ 0.336 µg/mL)
